Assay results published in patent US20030109460A1, “Medicinal composition containing camptothecin derivative and ph regulating agent” (priority 2000, published 2003).
“And” between values parts separate entries of the source, which are not always exact repeats. Equal entries are not always repeated. One block for each compound: values may come before it.

Legend:
[1] = Solubility under strongly acidic condition; format: physicochemical; settings: strongly acidic condition of pH 2.0 or less; salting out
Description: Generally, camptothecin derivatives have a lactone ring structure, so it is considered that reduction of the drug effect occurs due to ring-opening of the lactone ring in the structure in the alkaline range. In consequence, it is desirable that a pharmaceutical composition containing a camptothecin derivative having a lactone ring or a salt thereof is maintained within acidic range for the purpose of keeping the lactone ring under closed state. […] From two viewpoints of keeping closed state of lactone ring and ensuring proper solubility of the compound, it is desirable that the pharmaceutical composition of the invention is maintained within a weakly acidic condition by formulating a pH-adjusting substance. In this connection, when the pharmaceutical composition is an aqueous preparation, the term “a weakly acidic condition” as used herein means from about pH 3 to 6, and when the pharmaceutical composition is a freeze-dried preparation, it means that pH of an aqueous solution prepared by dissolving in water is from about pH 3 to 6.

[2] = Stability against heat and light; format: physicochemical; settings: severe treatment with heat and light
Experimental: In consequence, overkill approach and the like sterilization methods which accompany heating are not suited for the pharmaceutical composition of the invention. In order to obtain a substantially sterilized condition, it is desirable to employ a method in which the pharmaceutical composition is prepared under aseptic condition, a method in which a filter sterilization-treated solution of the pharmaceutical composition is made into a freeze-dried preparation, and the like. Particularly, the method for making a freeze-dried preparation is desirable. In addition, it is desirable for its preservation to use a container having shading ability. For example, brown vials and the like can be cited.

tumor = experiment: Anti-tumor effect
[3] = Stability of freeze-dried compound AS methanesulfonate, effect of pH, maltose 100 mg/ml (Example 5); format: physicochemical; settings: brown vials
Experimental: Maltose was added to an aqueous solution (1.0 mg/ml as a concentration converted to free form) of compound AS methanesulfonate to the final concentration of 100 mg/ml (AS methanesulfonate:maltose=1:77 by weight), and pH was adjusted to 3.5, 4.0 or 4.5 by adding hydrochloric acid. […] Brown vials were used as the container.

[4] = Stability of freeze-dried compound AS methanesulfonate, effect of adding amount of maltose (Example 4); format: physicochemical; settings: brown vials
[5] = Changes in pH by freeze drying treatment (Example 7); format: physicochemical; settings: for pH Before freeze drying / pH After freeze drying: Compound AS 2 mg, hydrochloric acid; for pH After freeze drying: redissolved to same concentration
Experimental: The pharmaceutical composition containing compound AS methanesulfonate was produced according to the formulation and production scale shown in Table 7 (AS methanesulfonate:maltose=1:19 or 1:38 by weight), and pH of the solution before freeze drying and pH of a solution prepared by dissolving the preparation after freeze drying in water to the same concentration of the solution before freeze drying were measured.

[6] = Stability of freeze-dried compound AS methanesulfonate, effect of pH, maltose 50 mg/ml (Example 6); format: physicochemical; settings: colorless vials
Experimental: Maltose was added to an aqueous solution (1.0 mg/ml as a concentration converted to free form) of compound AS methanesulfonate to the final concentration of 50 mg/ml (AS methanesulfonate:maltose=1:38 by weight), and pH was adjusted to 2.5, 3.0, 3.5 or 4.0 by adding hydrochloric acid. […] Colorless vials were used as the container.

[7] = Long term stability of freeze-dried compound AS methanesulfonate (Example 8); format: physicochemical
Experimental: A 1.4 kg portion of maltose and 73 g (56 g as converted to free form) of compound AS methanesulfonate was dissolved in 22 L of water (AS methanesulfonate:maltose=1:19 by weight). […] After freeze drying, this was stored under a condition of 5° C. or 25° C. with a relative humidity of 60%, and then dissolved in water to the same concentration of the solution before freeze drying to measure pH. […] Colorless vials were used as the container.

[8] = 25° C., 60% R.H., Starting time
[9] = Production scale 28.0 L, Maltose 50 mg, water total vol. 1 ml
[10] = Production scale 90.0 L, Maltose 100 mg, water total vol. 2 ml

solubility [1]: considerably reduced
stability against heat and light [2]: considerably unstable
SMILES: CC[C@@]1(O)C(=O)OCc2c1cc1n(c2=O)Cc2c-1nc1cc(F)c(C)c3c1c2C(N)CC3 (stereo partly drawn) [compound A, (9S)-1-amino-9-ethyl-5-fluoro-2,3-dihydro-9-hydroxy-4-methyl-1H,12H-benzo[de]pyrano[3′,4′:6,7]indolizino[1,2-b]quinoline-10,13(9H,15H)-dione]

SMILES: CC[C@@]1(O)C(=O)OCc2c1cc1n(c2=O)Cc2c-1nc1cc(F)c(C)c3c1c2[C@H](N)CC3 [compound AR, (1R,9S)-1-amino-9-ethyl-5-fluoro-2,3-dihydro-9-hydroxy-4-methyl-1H,12H-benzo[de]pyrano[3′,4′:6,7]indolizino[1,2-b]quinoline-10,13 (9H,15H)-dione]
anti-tumor effect (tumor): potent anti-tumor effect

Weight % of total analogous matter ([3]; pH 3.5, 40° C., 75% R.H., 1 month): 3.12 Weight %
Weight % of total analogous matter ([3]; pH 3.5, 60° C., 2 weeks): 7.52 Weight %
Weight % of total analogous matter ([3]; pH 3.5, Starting time): 0.72 Weight %
Weight % of total analogous matter ([3]; pH 4.0, 40° C., 75% R.H., 1 month): 1.36 Weight %
Weight % of total analogous matter ([3]; pH 4.0, 60° C., 2 weeks): 3.13 Weight %
Weight % of total analogous matter ([3]; pH 4.0, Starting time): 0.50 Weight %
Weight % of total analogous matter ([3]; pH 4.5, 40° C., 75% R.H., 1 month): 0.51 Weight %
Weight % of total analogous matter ([3]; pH 4.5, 60° C., 2 weeks): 0.75 Weight %
Weight % of total analogous matter ([3]; pH 4.5, Starting time): 0.40 Weight %
Weight % of total analogous matter ([4]; Maltose 50 mg/ml, 40° C., 75% R.H., 1 month, pH 4.0): 0.52 Weight %
Weight % of total analogous matter ([4]; Maltose 50 mg/ml, 50° C., 1 month, pH 4.0): 0.80 Weight %
Weight % of total analogous matter ([4]; Maltose 50 mg/ml, Starting time, pH 4.0 hydrochloric acid): 0.34 Weight %
Weight % of total analogous matter ([4]; Maltose 100 mg/ml, 40° C., 75% R.H., 1 month, pH 4.0): 1.36 Weight %
Weight % of total analogous matter ([4]; Maltose 100 mg/ml, 50° C., 1 month, pH 4.0): 2.24 Weight %
Weight % of total analogous matter ([4]; Maltose 100 mg/ml, Starting time, pH 4.0): 0.50 Weight %
change of pH by freeze drying treatment ([5]; maltose 1:19 or 1:38 by weight): hardly changes
Weight % of total analogous matter ([6]; pH 2.5, 60° C., 2 weeks): 21.43 Weight %
Weight % of total analogous matter ([6]; pH 2.5, Starting time): 1.05 Weight %
Weight % of total analogous matter ([6]; pH 3.0, 60° C., 2 weeks): 10.64 Weight %
Weight % of total analogous matter ([6]; pH 3.0, Starting time): 0.42 Weight %
Weight % of total analogous matter ([6]; pH 3.5, 60° C., 2 weeks): 5.07 Weight %
Weight % of total analogous matter ([6]; pH 3.5, Starting time): 0.27 Weight %
Weight % of total analogous matter ([6]; pH 4.0, 60° C., 2 weeks): 1.83 Weight %
Weight % of total analogous matter ([6]; pH 4.0, Starting time): 0.23 Weight %
Total analogous matter weight % ([7]; 5° C., 1 month): 0.32 weight %
pH ([7]; 5° C., 1 month): 3.9
Total analogous matter weight % ([7]; 5° C., 3 months): 0.33 weight %
pH ([7]; 5° C., 3 months): 3.9
Total analogous matter weight % ([7]; 5° C., 6 months): 0.33 weight %
pH ([7]; 5° C., 6 months): 3.7
Total analogous matter weight % ([7]; 5° C., 9 months): 0.33 weight %
pH ([7]; 5° C., 9 months): 4.0
Total analogous matter weight % ([7]; 5° C., 12 months): 0.33 weight %
pH ([7]; 5° C., 12 months): 3.9
Total analogous matter weight % ([7]; 5° C., 24 months): 0.33 weight %
pH ([7]; 5° C., 24 months): 4.1
Total analogous matter weight % ([7]; 5° C., 30 months): 0.33 weight %
pH ([7]; 5° C., 30 months): 4.6
Total analogous matter weight % ([7]; 5° C., 37 months): 0.32 weight %
pH ([7]; 5° C., 37 months): 3.7
Total analogous matter weight % ([7]; 5° C., Starting time, colorless vials): 0.33 weight %
pH ([7]; 5° C., Starting time, redissolved in water): 3.8
Total analogous matter weight % ([7]; 25° C., 60% R.H., 1 month): 0.33 weight %
pH ([7]; 25° C., 60% R.H., 1 month): 3.9
Total analogous matter weight % ([7]; 25° C., 60% R.H., 3 months): 0.33 weight %
pH ([7]; 25° C., 60% R.H., 3 months): 3.9
Total analogous matter weight % ([7]; 25° C., 60% R.H., 6 months): 0.33 weight %
pH ([7]; 25° C., 60% R.H., 6 months): 3.7
Total analogous matter weight % ([7]; 25° C., 60% R.H., 9 months): 0.33 weight %
pH ([7]; 25° C., 60% R.H., 9 months): 4.0
Total analogous matter weight % ([7]; 25° C., 60% R.H., 12 months): 0.33 weight %
pH ([7]; 25° C., 60% R.H., 12 months): 4.0
Total analogous matter weight % ([7]; 25° C., 60% R.H., 24 months): 0.33 weight %
pH ([7]; 25° C., 60% R.H., 24 months): 4.3
Total analogous matter weight % ([7]; 25° C., 60% R.H., 37 months): 0.33 weight %
pH ([7]; 25° C., 60% R.H., 37 months): 3.9
Total analogous matter weight % [7, 8]: 0.33 weight %
pH [7, 8]: 3.8
formation of the total analogous matter as weight % ([7]; until 37 months): ≤ 0.33%
SMILES: CC[C@@]1(O)C(=O)OCc2c1cc1n(c2=O)Cc2c-1nc1cc(F)c(C)c3c1c2[C@@H](N)CC3.CS(=O)(=O)O [compound AS methanesulfonate, (1S,9S)-1-amino-9-ethyl-5-fluoro-2,3-dihydro-9-hydroxy-4-methyl-1H,12H-benzo[de]pyrano[3′,4′:6,7]indolizino[1,2-b]quinoline-10,13(9H,15H)-dione methanesulfonate]

pH Before freeze drying [5, 9]: 3.73 and 3.67
pH After freeze drying [5, 9]: 4.00 and 3.83
pH Before freeze drying [5, 10]: 3.85
pH After freeze drying [5, 10]: 3.97
SMILES: CC[C@@]1(O)C(=O)OCc2c1cc1n(c2=O)Cc2c-1nc1cc(F)c(C)c3c1c2[C@@H](N)CC3 [compound AS, (1S,9S)-1-amino-9-ethyl-5-fluoro-2,3-dihydro-9-hydroxy-4-methyl-1H,12H-benzo[de]pyrano[3′,4′:6,7]indolizino[1,2-b]quinoline-10,13(9H,15H)-dione]
anti-tumor effect (tumor): potent anti-tumor effect
anti-tumor effect relative to compound AR (tumor; compound AS versus compound AR): about two times higher
